Test results: US20170239289A1, “TREATMENT OF INFLAMMATION, RESPIRATORY TRACT INFECTIONS AND CYSTIC FIBROSIS” (Advanced Inhalation Therapies (AIT) Ltd., priority 2014, published 2017)

How the values were obtained:
Type in all cases: in vivo
[1] = test system: human subjects diagnosed with, or suffering from CF; test: Example 1: FEV1 in CF subjects treated with 160 ppm NO
Experimental: NO was administered via inhalation to nine clinically stable human subjects diagnosed with, or suffering from CF from two medical centers. Patients received three daily 30-minute treatments of 160 ppm NO with at least 3.5 hours between treatments, for 5 days per week over a two-weeks time period.
Preliminary efficacy measures included determination of microbial density in sputum and measurements of forced exhaled volume at 1 second (FEV1). Inflammation associated with C-reactive protein (CRP) levels was assessed as a secondary outcome measure. Other inflammation biomarkers, such as interleukins, were also monitored (data not shown).

Achromobacter spp. = test: Example 4: bacterial and fungal sputum load
Experimental: (§1) In addition to their standard care, subjects were administered three 30-minute inhalations per day of 160 ppm NO (with O2/air) for 10 working days (i.e., 5 days on treatment, 2 days off treatment, 5 days on treatment, for a total of 10 treatment days and 30 inhalations).
(§2) Secondary Endpoints—Efficacy: • Comparison of FEV1 improvement before and after NO treatment Observational Endpoints: • To determine the reduction in bacterial and fungal sputum load during each week of NO treatment compared to bacterial sputum load before NO treatment • Assess the improvement of lung function indices during and after NO intermittent inhalation treatment as determined by spirometry (i.e., FVC, FEV1, FEV1/FVC, forced expiratory flow 25% to 75% (FEF 25-75)) • Evaluate C-reactive protein (CRP) levels over time • Number of subjects with study drug related bleeding at any time point
(§3) Results of the bacterial and fungal sputum load analysis were highly variable, and due to limitations of the sampling and testing technique, must be interpreted with caution. Microbiology results were recorded from Day 1 to end of follow-up, for all samples taken during the study. In order for NO therapy to be efficient, a minimal exposure of the microbial population to NO for the whole duration of the study is required. […] Thus, data was analyzed only for cultures with positive results on Day 1. Furthermore, samples from 2 subjects (SO-01 and SO-02) were not analyzed by the central laboratory. A summary of the bacterial and fungal sputum results at Day 1 and Day 9 is presented according to subject in Table 18.

Aspergillus fumigatus = test: Example 4: bacterial and fungal sputum load
Experimental: as §1, §2, §3

Non-Mucoid P. aeruginosa = test: Example 4: bacterial and fungal sputum load
Experimental: as §1, §2, §3

Total P. aeruginosa = test: Example 4: bacterial and fungal sputum load
Experimental: as §1, §2, §3

mucoid P. aeruginosa = test: Example 4: bacterial and fungal sputum load
Experimental: as §1, §2, §3

In the case of [N]=O [NO, nitric oxide], the FEV1 reduction ([1]; one patient, returned to initial levels after 2 weeks) is reported as 11%, the “changes in FEV1 values” ([1]; two of 9 subjects) is reported as “no significant changes” and the “Achromobacter spp., % change from Day 1 to Day 9” value (Achromobacter spp.; Subject SC-03) is reported as −94.3%. The “Achromobacter spp. sputum load” value (Achromobacter spp.; Subject SC-03, Day 1) was 44.1 CFU/mL × 10^−4, the “Achromobacter spp. sputum load” value (Achromobacter spp.; Subject SC-03, Day 9) was 2.50 CFU/mL × 10^−4 and the “Aspergillus fumigatus, % change from Day 1 to Day 9” value (Aspergillus fumigatus; Subject SC-03) was −100.0%. The “Aspergillus fumigatus sputum load” value (Aspergillus fumigatus; Subject SC-03, Day 1) was 2.00 CFU/mL × 10^−4, the “Aspergillus fumigatus sputum load” value (Aspergillus fumigatus; Subject SC-03, Day 9) was 0 CFU/mL × 10^−4 and the “Non-Mucoid P. aeruginosa, % change from Day 1 to Day 9” value (“Non-Mucoid P. aeruginosa, % change” for short) (Non-Mucoid P. aeruginosa; Subject SC-02) was “+33.1%”. For the same compound, the “Non-Mucoid P. aeruginosa sputum load” value (Non-Mucoid P. aeruginosa; Subject SC-02, Day 1) was 496 CFU/mL × 10^−4, the “Non-Mucoid P. aeruginosa sputum load” value (Non-Mucoid P. aeruginosa; Subject SC-02, Day 9) was 660 CFU/mL × 10^−4 and the “Non-Mucoid P. aeruginosa, % change” value (Non-Mucoid P. aeruginosa; Subject SC-04) was −57.9%. For the same compound, the “Non-Mucoid P. aeruginosa sputum load” value (Non-Mucoid P. aeruginosa; Subject SC-04, Day 1) was 80,000 CFU/mL × 10^−4, the “Non-Mucoid P. aeruginosa sputum load” value (Non-Mucoid P. aeruginosa; Subject SC-04, Day 9) was 33,700 CFU/mL × 10^−4 and the “Non-Mucoid P. aeruginosa, % change” value (Non-Mucoid P. aeruginosa; Subject SC-05) was −89.3%. For the same compound, the “Non-Mucoid P. aeruginosa sputum load” value (Non-Mucoid P. aeruginosa; Subject SC-05, Day 1) was 29,200 CFU/mL × 10^−4, the “Non-Mucoid P. aeruginosa sputum load” value (Non-Mucoid P. aeruginosa; Subject SC-05, Day 9) was 3,110 CFU/mL × 10^−4 and the “Total P. aeruginosa (central lab only), % change from Day 1 to Day 9” value (Total P. aeruginosa; Subject SC-01) was −3.7%. The “Total P. aeruginosa (including Soroka lab), % change from Day 1 to Day 9” value (Total P. aeruginosa; Subject SC-01) was −3.7%, the “Total P. aeruginosa (central lab only) sputum load” value (Total P. aeruginosa; Subject SC-01, Day 1) was 2,700 CFU/mL × 10^−4 and the “Total P. aeruginosa (including Soroka lab) sputum load” value (Total P. aeruginosa; Subject SC-01, Day 1) was 2,700 CFU/mL × 10^−4. For the same compound, the “Total P. aeruginosa (central lab only) sputum load” value (Total P. aeruginosa; Subject SC-01, Day 9) was 2,600 CFU/mL × 10^−4, the “Total P. aeruginosa (including Soroka lab) sputum load” value (Total P. aeruginosa; Subject SC-01, Day 9) was 2,600 CFU/mL × 10^−4 and the “Total P. aeruginosa (central lab only), % change from Day 1 to Day 9” value (Total P. aeruginosa; Subject SC-02) was “+33.1%”. The “Total P. aeruginosa (including Soroka lab), % change from Day 1 to Day 9” value (Total P. aeruginosa; Subject SC-02) was “+33.1%”, the “Total P. aeruginosa (central lab only) sputum load” value (Total P. aeruginosa; Subject SC-02, Day 1) was 496 CFU/mL × 10^−4 and the “Total P. aeruginosa (including Soroka lab) sputum load” value (Total P. aeruginosa; Subject SC-02, Day 1) was 496 CFU/mL × 10^−4. The “Total P. aeruginosa (central lab only) sputum load” value (Total P. aeruginosa; Subject SC-02, Day 9) was 660 CFU/mL × 10^−4, the “Total P. aeruginosa (including Soroka lab) sputum load” value (Total P. aeruginosa; Subject SC-02, Day 9) was 660 CFU/mL × 10^−4 and the “Total P. aeruginosa (central lab only), % change from Day 1 to Day 9” value (Total P. aeruginosa; Subject SC-04) was −57.9%. For the same compound, the “Total P. aeruginosa (including Soroka lab), % change from Day 1 to Day 9” value (Total P. aeruginosa; Subject SC-04) was −57.9%, the “Total P. aeruginosa (central lab only) sputum load” value (Total P. aeruginosa; Subject SC-04, Day 1) was 80,000 CFU/mL × 10^−4 and the “Total P. aeruginosa (including Soroka lab) sputum load” value (Total P. aeruginosa; Subject SC-04, Day 1) was 80,000 CFU/mL × 10^−4. For the same compound, the “Total P. aeruginosa (central lab only) sputum load” value (Total P. aeruginosa; Subject SC-04, Day 9) was 33,700 CFU/mL × 10^−4, the “Total P. aeruginosa (including Soroka lab) sputum load” value (Total P. aeruginosa; Subject SC-04, Day 9) was 33,700 CFU/mL × 10^−4 and the “Total P. aeruginosa (central lab only), % change from Day 1 to Day 9” value (Total P. aeruginosa; Subject SC-05) was −90.2%. For the same compound, the “Total P. aeruginosa (including Soroka lab), % change from Day 1 to Day 9” value (Total P. aeruginosa; Subject SC-05) was −90.2%, the “Total P. aeruginosa (central lab only) sputum load” value (Total P. aeruginosa; Subject SC-05, Day 1) was 32,100 CFU/mL × 10^−4 and the “Total P. aeruginosa (including Soroka lab) sputum load” value (Total P. aeruginosa; Subject SC-05, Day 1) was 32,100 CFU/mL × 10^−4. For the same compound, the “Total P. aeruginosa (central lab only) sputum load” value (Total P. aeruginosa; Subject SC-05, Day 9) was 3,140 CFU/mL × 10^−4, the “Total P. aeruginosa (including Soroka lab) sputum load” value (Total P. aeruginosa; Subject SC-05, Day 9) was 3,140 CFU/mL × 10^−4 and the “Total P. aeruginosa (including Soroka lab), % change from Day 1 to Day 9” value (Total P. aeruginosa; Subject SO01) was “+611%”. For the same compound, the “Total P. aeruginosa (including Soroka lab) sputum load” value (Total P. aeruginosa; Subject SO01, Day 1) was 450 CFU/mL × 10^−4, the “Total P. aeruginosa (including Soroka lab) sputum load” value (Total P. aeruginosa; Subject SO01, Day 9) was 3,200 CFU/mL × 10^−4 and the “Total P. aeruginosa (including Soroka lab), % change from Day 1 to Day 9” value (Total P. aeruginosa; Subject SO02) was “+250%”. The “Total P. aeruginosa (including Soroka lab) sputum load” value (Total P. aeruginosa; Subject SO02, Day 1) was 100 CFU/mL × 10^−4, the “Total P. aeruginosa (including Soroka lab) sputum load” value (Total P. aeruginosa; Subject SO02, Day 9) was 350 CFU/mL × 10^−4 and the “Mucoid P. aeruginosa, % change from Day 1 to Day 9” value (mucoid P. aeruginosa; Subject SC-01) was −3.7%. The “Mucoid P. aeruginosa sputum load” value (mucoid P. aeruginosa; Subject SC-01, Day 1) was 2,700 CFU/mL × 10^−4, the “Mucoid P. aeruginosa sputum load” value (mucoid P. aeruginosa; Subject SC-01, Day 9) was 2,600 CFU/mL × 10^−4 and the “Mucoid P. aeruginosa, % change from Day 1 to Day 9” value (mucoid P. aeruginosa; Subject SC-05) was −99.9%. The “Mucoid P. aeruginosa sputum load” value (mucoid P. aeruginosa; Subject SC-05, Day 1) was 29,000 CFU/mL × 10^−4 and the “Mucoid P. aeruginosa sputum load” value (mucoid P. aeruginosa; Subject SC-05, Day 9) was 30.0 CFU/mL × 10^−4.
